Source: ChEMBL document CHEMBL1131387, “Dimers of 5HT1 ligands preferentially bind to 5HT1B/1D receptor subtypes” (Bioorg Med Chem Lett, 1998)

Key:
[1] = target: T1, 5-hydroxytryptamine receptor 1B (Homo sapiens, UniProt P28222); experiment: Binding affinity was evaluated at human recombinant 5-hydroxytryptamine 1B receptor using [3H]5-CT as radioligand
[2] = target: 5-hydroxytryptamine receptor 1D (Homo sapiens, UniProt P28221); experiment: Binding affinity was evaluated at human recombinant 5-hydroxytryptamine 1D receptor using [3H]-5-CT as radioligand
Chain of 5-hydroxytryptamine receptor 1D (P28221 whole entry): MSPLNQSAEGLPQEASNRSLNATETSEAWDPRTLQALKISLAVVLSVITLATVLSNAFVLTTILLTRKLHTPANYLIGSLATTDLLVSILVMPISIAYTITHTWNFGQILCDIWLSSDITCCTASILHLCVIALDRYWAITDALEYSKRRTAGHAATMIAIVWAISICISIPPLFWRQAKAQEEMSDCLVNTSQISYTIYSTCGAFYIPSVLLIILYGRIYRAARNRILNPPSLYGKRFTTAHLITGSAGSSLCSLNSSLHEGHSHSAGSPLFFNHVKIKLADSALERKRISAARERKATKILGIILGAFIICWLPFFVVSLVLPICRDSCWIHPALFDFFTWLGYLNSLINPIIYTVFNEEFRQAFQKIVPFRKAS

[3] = target: T2, 5-hydroxytryptamine receptor 1A (Homo sapiens, UniProt P08908); experiment: Binding affinity was evaluated at human recombinant 5-hydroxytryptamine 1A receptor using [3H]8-OH-DPAT as radioligand
T2 sequence (P08908 whole entry): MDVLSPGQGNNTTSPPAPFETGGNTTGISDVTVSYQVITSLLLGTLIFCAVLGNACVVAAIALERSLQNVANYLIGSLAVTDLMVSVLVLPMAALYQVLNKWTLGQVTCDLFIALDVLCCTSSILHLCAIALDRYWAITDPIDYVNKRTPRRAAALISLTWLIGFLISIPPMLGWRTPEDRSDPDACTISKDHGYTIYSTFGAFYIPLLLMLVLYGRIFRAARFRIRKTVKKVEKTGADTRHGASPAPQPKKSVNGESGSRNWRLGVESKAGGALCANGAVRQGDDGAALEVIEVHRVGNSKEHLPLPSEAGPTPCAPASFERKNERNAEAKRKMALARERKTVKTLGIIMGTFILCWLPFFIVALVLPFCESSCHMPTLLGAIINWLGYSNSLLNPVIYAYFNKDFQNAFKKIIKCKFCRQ

[4] = target: T1, 5-hydroxytryptamine receptor 1B; experiment: The intrinsic activity was evaluated for its ability to inhibit forskolin-stimulated c-AMP formation mediated by cloned 5-hydroxytryptamine 1B receptor in CHO cell line; type: functional, cell-based
[5] = target: T1, 5-hydroxytryptamine receptor 1B; experiment: The intrinsic activity was evaluated for its ability to inhibit forskolin-stimulated c-AMP formation mediated by cloned 5-hydroxytryptamine 1B receptor in CHO cell line; Partial Agonist; type: functional, cell-based
[6] = target: T1, 5-hydroxytryptamine receptor 1B; experiment: The intrinsic activity was evaluated for its ability to inhibit forskolin-stimulated c-AMP formation mediated by cloned 5-hydroxytryptamine 1B receptor in CHO cell line; Antagonist; type: functional, cell-based

T1 sequence (P28222 whole entry): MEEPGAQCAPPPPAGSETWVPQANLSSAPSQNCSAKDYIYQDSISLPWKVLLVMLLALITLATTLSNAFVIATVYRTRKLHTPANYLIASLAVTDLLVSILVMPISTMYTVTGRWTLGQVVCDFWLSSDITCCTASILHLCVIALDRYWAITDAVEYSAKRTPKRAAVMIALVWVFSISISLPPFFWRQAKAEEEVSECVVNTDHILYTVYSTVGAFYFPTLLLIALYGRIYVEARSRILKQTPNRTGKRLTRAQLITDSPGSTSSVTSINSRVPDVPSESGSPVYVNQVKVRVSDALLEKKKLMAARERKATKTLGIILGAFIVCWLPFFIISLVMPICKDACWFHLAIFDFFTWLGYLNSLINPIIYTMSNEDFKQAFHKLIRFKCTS

SMILES	Ki [1]	Ki [2]	Ki [3]	EC50 [4]	EC50 [5]	EC50 [6]
CCCN(CCC)C1CCc2cccc(OCCCCCCOc3cccc4c3CC(N(CCC)CCC)CC4)c2C1 (configuration not stated)	6.4 nM	3.9 nM	6.8 nM	50 nM		
CN1CCN(c2cccc3ccc(OCC(=O)N4CCN(C(=O)COc5ccc6cccc(N7CCN(C)CC7)c6c5)CC4)cc23)CC1	2.56 nM	1.24 nM	4 nM		Partial agonist	
c1ccc2c(N3CCNCC3)cccc2c1	10.6 nM					> 10000 nM
CN1CCN(c2cccc3ccc(OCCOc4ccc5cccc(N6CCN(C)CC6)c5c4)cc23)CC1	2.1 nM	1.71 nM	14 nM			> 1000 nM

These reach a lower Ki [1]. Values come first.

Ki [1]	Ki [2]	Ki [3]	EC50 [4]	EC50 [5]	SMILES	EC50 [6]
0.7 nM	0.5 nM	5.8 nM		Partial agonist	CN1CCN(c2cccc3ccc(OCC(=O)Nc4ccc(NC(=O)COc5ccc6[nH]cc(CCN)c6c5)cc4)cc23)CC1	
0.76 nM	0.4 nM	0.96 nM		Partial agonist	CN1CCN(c2cccc3ccc(OCCOc4ccc5[nH]cc(CCN)c5c4)cc23)CC1	
